Assay results published in patent US20070049518A1, “Novel method of treatment of inflammatory skin conditions” (priority 2005, published 2007).
pIC50: −log10 of the molar value. Several values for one entry are separate records, joined by “and”; a condition that tells them apart may be missing. Equal values may be shown once. Read-outs that look alike come from different tables or passages of the source.

What was measured:
[1] = target: T1, purified aureolysin type I (Staphylococcus aureus, UniProt P81177); test: biochemical
T1 construct: purchased BioCentrum Ltd

human MMP-8 = target: T2, human MMP-8 (Homo sapiens, UniProt P22894); test: MMP enzyme inhibition assay, MMP-8; assay type: biochemical; settings: for pIC50: pH 7.5, 37° C., 1 hour
T2 construct: purchased Calbiochem
T2 sequence (P22894 101-467): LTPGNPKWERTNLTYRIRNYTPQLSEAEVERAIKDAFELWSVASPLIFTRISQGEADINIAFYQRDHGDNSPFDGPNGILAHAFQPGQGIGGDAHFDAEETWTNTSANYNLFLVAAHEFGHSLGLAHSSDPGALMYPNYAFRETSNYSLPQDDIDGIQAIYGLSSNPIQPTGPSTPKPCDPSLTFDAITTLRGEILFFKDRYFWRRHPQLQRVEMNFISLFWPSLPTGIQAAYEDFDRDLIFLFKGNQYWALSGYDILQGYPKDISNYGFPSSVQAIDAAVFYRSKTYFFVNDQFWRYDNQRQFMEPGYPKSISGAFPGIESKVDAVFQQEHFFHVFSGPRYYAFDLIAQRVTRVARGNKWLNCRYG

human MMP-9 = target: T3, human MMP-9 (Homo sapiens, UniProt P14780); test: MMP enzyme inhibition assay, MMP-9; assay type: biochemical; settings: for pIC50: pH 7.5, 37° C., 1 hour
T3 construct: purchased Calbiochem
T3 sequence (P14780 94-707): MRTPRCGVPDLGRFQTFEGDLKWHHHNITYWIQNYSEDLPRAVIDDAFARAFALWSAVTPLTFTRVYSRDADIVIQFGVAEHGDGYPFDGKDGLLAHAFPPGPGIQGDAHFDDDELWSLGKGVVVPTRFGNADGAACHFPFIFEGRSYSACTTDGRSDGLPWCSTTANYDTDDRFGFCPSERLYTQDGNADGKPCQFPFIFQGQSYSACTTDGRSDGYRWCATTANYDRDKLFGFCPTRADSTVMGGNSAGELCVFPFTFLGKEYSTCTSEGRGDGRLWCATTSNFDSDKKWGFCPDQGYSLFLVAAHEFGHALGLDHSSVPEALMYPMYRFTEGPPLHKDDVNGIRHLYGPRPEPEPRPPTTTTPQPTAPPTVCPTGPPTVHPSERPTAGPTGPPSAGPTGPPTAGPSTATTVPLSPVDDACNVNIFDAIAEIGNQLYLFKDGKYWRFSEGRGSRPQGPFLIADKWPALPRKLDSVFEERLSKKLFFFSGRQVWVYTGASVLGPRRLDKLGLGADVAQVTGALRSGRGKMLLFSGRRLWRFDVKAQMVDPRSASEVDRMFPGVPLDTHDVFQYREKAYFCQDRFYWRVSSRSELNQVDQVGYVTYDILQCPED

human MMP-2 = target: T4, human MMP-2 (Homo sapiens, UniProt P08253); test: MMP enzyme inhibition assay, MMP-2; assay type: biochemical; settings: for pIC50: pH 7.5, 37° C., 1 hour
T4 construct: purchased Calbiochem
T4 sequence (P08253 110-660): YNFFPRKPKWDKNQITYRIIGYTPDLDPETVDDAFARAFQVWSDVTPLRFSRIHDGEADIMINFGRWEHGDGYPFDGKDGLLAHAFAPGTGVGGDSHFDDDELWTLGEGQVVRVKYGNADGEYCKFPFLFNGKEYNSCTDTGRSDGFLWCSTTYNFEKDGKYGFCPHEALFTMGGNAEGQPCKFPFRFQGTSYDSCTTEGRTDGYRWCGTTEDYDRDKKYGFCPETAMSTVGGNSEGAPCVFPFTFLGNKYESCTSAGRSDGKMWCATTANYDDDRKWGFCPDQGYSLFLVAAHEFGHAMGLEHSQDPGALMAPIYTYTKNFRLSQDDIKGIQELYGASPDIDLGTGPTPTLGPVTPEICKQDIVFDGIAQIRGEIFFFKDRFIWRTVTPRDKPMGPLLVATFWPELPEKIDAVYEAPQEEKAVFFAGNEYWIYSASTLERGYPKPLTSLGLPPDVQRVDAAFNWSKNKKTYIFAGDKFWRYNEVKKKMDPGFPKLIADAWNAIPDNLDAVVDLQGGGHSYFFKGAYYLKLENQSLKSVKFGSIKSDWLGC

[2] = target: T5, purified aureolysin type II (Staphylococcus aureus, UniProt P81177); test: Aureolysin enzyme inhibition assay, type II; assay type: biochemical
T5 sequence (P81177 1-509): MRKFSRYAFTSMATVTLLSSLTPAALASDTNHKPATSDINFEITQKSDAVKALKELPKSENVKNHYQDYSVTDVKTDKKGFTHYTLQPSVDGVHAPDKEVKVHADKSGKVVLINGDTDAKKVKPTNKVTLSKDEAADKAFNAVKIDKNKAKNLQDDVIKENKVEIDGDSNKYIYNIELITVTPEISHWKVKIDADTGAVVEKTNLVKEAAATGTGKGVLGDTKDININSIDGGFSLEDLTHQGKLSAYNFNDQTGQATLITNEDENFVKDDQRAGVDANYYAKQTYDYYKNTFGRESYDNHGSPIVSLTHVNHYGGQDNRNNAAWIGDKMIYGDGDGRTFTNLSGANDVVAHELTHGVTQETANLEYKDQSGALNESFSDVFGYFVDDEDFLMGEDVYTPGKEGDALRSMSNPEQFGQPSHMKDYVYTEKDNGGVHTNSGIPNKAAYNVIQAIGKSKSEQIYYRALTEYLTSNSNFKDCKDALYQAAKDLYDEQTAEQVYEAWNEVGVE

human MMP-1 = target: T6, human MMP-1 (Homo sapiens, UniProt P03956); test: MMP enzyme inhibition assay, MMP-1; assay type: biochemical; settings: for pIC50: pH 7.5, 37° C., 1 hour
T6 construct: purchased Calbiochem
T6 sequence (P03956 100-469): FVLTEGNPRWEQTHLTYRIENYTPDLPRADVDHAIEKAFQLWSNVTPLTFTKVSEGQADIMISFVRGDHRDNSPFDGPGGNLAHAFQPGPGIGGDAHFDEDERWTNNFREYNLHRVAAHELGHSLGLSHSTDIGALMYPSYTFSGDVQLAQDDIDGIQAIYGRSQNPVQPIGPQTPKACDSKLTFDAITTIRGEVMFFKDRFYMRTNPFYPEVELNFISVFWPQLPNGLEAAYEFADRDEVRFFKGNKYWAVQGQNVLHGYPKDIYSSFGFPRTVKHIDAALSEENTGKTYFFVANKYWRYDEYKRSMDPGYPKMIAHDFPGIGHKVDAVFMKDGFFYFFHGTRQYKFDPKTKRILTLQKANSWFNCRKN

[3] = target: T7, metalloprotease (aureolysin) activity in Staphylococcus aureus 8325-4 culture supernatants (Staphylococcus aureus, UniProt P81177); test: Metalloprotease activity in S. aureus culture supernatants; assay type: biochemical
T7 construct: 4 μl S. aureus culture supernatant; endogenous in cells; host or cells: Staphylococcus aureus 8325-4 (culture supernatant)
Procedure: The culture was then centrifuged to remove the cells and the supernatant stored at −70° C. for subsequent use. […] Activity was expressed as the rate of increase in fluorescence as a function of time.

[4] = tested on: S. aureus ATCC 27733 or 8325-4; test: Milk agar plate assay of S. aureus protease activity; assay type: cell-based, Staphylococcus aureus; settings: FIG. 2
Procedure: In a second assay for measuring S. aureus protease activity directly, S. aureus ATCC 27733 or 8325-4 was cultured on 10% (v/v) skimmed milk agar plates containing 2% (v/v) DMSO with or without compound. Compounds dissolved in DMSO were incorporated into the solid medium immediately prior to pouring.

[5] = tested on: Human skin epidermal keratinocytes; test: Keratinocyte activation, IL-8 production; assay type: cell-based; settings: 48 hours, aureolysin 50 μg/ml
Text: Activated keratinocytes produce IL-8, a proinflammatory chemokine. Many bacterial products cause the activation of keratinocytes. Aureolysin may be evaluated for its effects on IL-8 production by keratinocytes. Human skin epidermal keratinocytes (TCS Cellworks) are maintained as per instructions. Proliferating cultures are trypsinised, harvested, treated with a trypsin inhibitor and resuspended in growth medium at approximately 50,000 cells/well, to provide confluent monolayers in 96 well plates. Cells are incubated overnight at 37° C. at 5% CO2 to allow recovery, the spent medium aspirated from the wells and replaced with fresh growth medium. The cells are incubated at 37° C. at 5% CO2 for a further 24 or 48 hours with aureolysin or buffer control.
The supernatants are removed from each well and the concentration of IL-8 is determined using a human IL-8 ELISA development kit from R&D systems (Catalog Number: DY208) using the manufacturers instructions.
In these experiments, the cells are incubated at 37° C. at 5% CO2 for 48 hours with aureolysin or buffer control. Poly IC and lipoteichoic acid (LTA), which stimulate IL-8 production in keratinocytes were used as positive controls.

aureolysin = aureolysin (Staphylococcus aureus, UniProt P81177); test: Inhibition of aureolysin-mediated pro-uPA activation; settings: for Urokinase activity after pro-uPA activation: Expt. 2, Compound 13 20 μM, pH 5.6
Text: Under these conditions the extent of pro-uPA cleavage as assessed by uPA activity was directly proportional to the concentration of aureolysin in the assay.

S. aureus 8325-4 = test: S. aureus growth by turbidometry in micro-titre plates; assay type: cell-based, Staphylococcus aureus; settings: Staphylococcus aureus, 83254, read-out: IC50 value (50% decrease in terminal absorbance); overnight, absorbance 620 nm
Procedure: Tryptic soy broth (0.18 ml) containing S. aureus 8325-4 (approximately 10^5 cells) was mixed with 20 μl 20% (v/v) DMSO vehicle±compound in the wells of a flat-bottomed clear polystyrene 96-well micro-titre plate. The plate was incubated overnight at 37° C./220 rpm and the absorbance measured at 620 nm the following day.

[6] = pH 6.8, 37° C., 1 hour; read-out: IC50 value Aureolysin type II

Molecule	pIC50 [1]	pIC50 [2, 6]	pIC50 [3]	pIC50 (human MMP-8)	pIC50 (human MMP-9)	pIC50 (human MMP-2)	pIC50 (human MMP-1)	other results
CC(C)C[C@H](NP(=O)(O)O[C@@H]1O[C@@H](C)[C@H](O)[C@@H](O)[C@H]1O)C(=O)N[C@@H](Cc1c[nH]c2ccccc12)C(=O)O [Compound 15, phosphoramidon]	5.55	5.64	5.48	–	–	–	–	inhibition at 2.7 µM (human MMP-8; @ 2.7 μM): 0%; inhibition at 2.7 µM (human MMP-9; @ 2.7 μM): 0%; inhibition at 2.7 µM (human MMP-2; @ 2.7 μM): 0%; inhibition at 2.7 µM (human MMP-1; @ 2.7 μM): 0%
CNC(=O)[C@@H](NC(=O)[C@H](CC(C)C)[C@H](O)C(=O)NO)C(C)(C)C [Compound 3, marimastat]	–	–	–	–	–	–	–	inhibition of proteolytic activity, zone of clearance of milk proteins (in words) [4]: inhibition of proteolytic activity
CC(C)C[C@@H](C(=O)N[C@H](C(=O)Nc1ccccn1)C(C)(C)C)[C@H](O)C(=O)NO [Compound 9]	5.82	5.62	5.54	8.77	8.39	8.74	8.51	–
CNC(=O)[C@H](Cc1c[nH]c2ccccc12)NC(=O)[C@@H](CC(=O)NO)CC(C)C [Compound 1, ilomastat]	6.59	6.37	6.24	–	–	–	–	–
CNC(=O)[C@H](CCc1ccccc1)NC(=O)[C@H](CC(=O)NO)CC(C)C [Compound 16, (S)—N4-hydroxy-2-isobutyl-N1-((S)-1-(methylamino)-1-oxo-4-phenylbutan-2-yl)succinamide]	7.24	7.03	7.02	5.80	5.70	5.68	5.21	–
Poly IC	–	–	–	–	–	–	–	IL-8 ± SE [5]: 282 pg/mL and 282 ± 0.9 pg/mL
CC(C)C[C@@H](C(=O)N[C@H](C(=O)N(C)C)C(C)(C)C)[C@H](O)C(=O)NO [Compound 5]	4.57	4.39	4.36	8.41	7.52	8.11	7.96	–
CNC(=O)C(CCc1ccccc1)NC(=O)C(CC(=O)NO)CC(C)C (stereo not shown) [Compound 13]	6.48	6.16	6.16	8.80	8.72	8.96	8.25	Urokinase activity after pro-uPA activation (aureolysin; aureolysin 0 μg/ml): 0.11 A405/0.5 h/μg; Urokinase activity after pro-uPA activation (aureolysin; aureolysin 0.1 μg/ml): 0.36 A405/0.5 h/μg; Urokinase activity after pro-uPA activation (aureolysin; aureolysin 0.3 μg/ml): 0.52 A405/0.5 h/μg; Urokinase activity after pro-uPA activation (aureolysin; aureolysin 0.8 μg/ml): 0.96 A405/0.5 h/μg; inhibition at 20 µM (aureolysin; pH 5.6, read-out: inhibition of aureolysin activation of pro-uPA): ≥ 82%
CNC(=O)[C@H](CCc1ccccc1)NC(=O)[C@@H](CC(=O)NO)CC(C)C [Compound 17, (R)—N4-hydroxy-2-isobutyl-N1-((S)-1-(methylamino)-1-oxo-4-phenylbutan-2-yl)succinamide]	5.92	5.64	5.64	8.36	8.23	8.62	7.77	–
lipoteichoic acid [LTA]	–	–	–	–	–	–	–	IL-8 ± SE [5]: 454 pg/mL and 454 ± 61.0 pg/mL
CO[C@H](C(=O)NO)[C@@H](CC(C)C)C(=O)N[C@H](C(=O)Nc1ccccn1)C(C)(C)C [Compound 7, solimastat]	5.66	5.46	5.35	8.77	8.29	8.49	8.48	–
CCCCC[C@H](CC(=O)NO)C(=O)N[C@H](C(=O)N1CCC[C@H]1CO)C(C)C [Actinonin, actinonin, reference compound]	–	–	–	–	–	–	–	pIC50 (S. aureus 8325-4): 5.59
COc1ccc(S(=O)(=O)N(CC(=O)NO)CC(C)C)cc1 [Compound 14]	6.00	–	5.44	7.68	8.00	8.34	–	pIC50 ([2]; read-out: IC50 value Aureolysin type II; pH 6.8, 37° C., 1 hour): 5.60
